Data published in US20170190671A1, “BIS(ARYL)CATECHOL DERIVATIVES AS HERBICIDES” (E I DU PONT DE NEMOURS AND COMPANY, priority 2014, published 2017).

How the values were obtained:
Assay type in all cases: in vivo
[1] = test system: barnyardgrass (Echinochloa crus-galli); assay: Test B flooded paddy; conditions: Echinochloa crus-galli, 336 h; 250 g ai/ha, Flood, 13 to 15 days, scale 0 (no effect) to 100 (complete control); read-out: Plant response rating, Barnyardgrass
How it was run: (§1)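 Greenhouse pots flooded to 3 cm above soil at time of treatment received compound via the water, which stayed at that level.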

[2] = test system: ducksalad (Heteranthera limosa); assay: Test B flooded paddy; conditions: Heteranthera limosa, 336 h; 250 g ai/ha, Flood, 13 to 15 days, scale 0 (no effect) to 100 (complete control); read-out: Plant response rating, Ducksalad
How it was run: as §1

[3] = test system: rice (Oryza sativa); assay: Test B flooded paddy; conditions: Oryza sativa, 336 h; 250 g ai/ha, Flood, 13 to 15 days, scale 0 (no effect) to 100 (complete control); read-out: Plant response rating, Rice
How it was run: as §1

[4] = test system: sedge, umbrella (small-flower umbrella sedge, Cyperus difformis); assay: Test B flooded paddy; conditions: Cyperus difformis, 336 h; 250 g ai/ha, Flood, 13 to 15 days, scale 0 (no effect) to 100 (complete control); read-out: Plant response rating, Sedge, Umbrella
How it was run: as §1

[5] = test system: barnyardgrass (Echinochloa crus-galli); assay: Test A preemergence; conditions: Echinochloa crus-galli, pre-emergence, 240 h, 0 to 100 scale, read-out: Plant response rating, Barnyardgrass
How it was run: (§2)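 Injury scores run from 0, no effect, to 100, complete control, judged by eye against untreated plants roughly 10 days after treatment. Chemicals carried a surfactant in a non-phytotoxic solvent and went onto loam–sand soil preemergence or onto one- to two-leaf seedlings postemergence.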

[6] = test system: corn (Zea mays); assay: Test A preemergence; conditions: 0 to 100 scale
How it was run: as §2

[7] = test system: giant foxtail (Setaria faberii); assay: Test A preemergence; conditions: Setaria faberi, pre-emergence, 240 h, 0 to 100 scale, read-out: Plant response rating, Foxtail, Giant
How it was run: as §2

[8] = test system: large (Lg) crabgrass (Digitaria sanguinalis); assay: Test A preemergence; conditions: 0 to 100 scale
How it was run: as §2

[9] = test system: morningglory (Ipomoea spp.); assay: Test A preemergence; conditions: 0 to 100 scale
How it was run: as §2

[10] = test system: pigweed (Amaranthus retroflexus); assay: Test A preemergence; conditions: Amaranthus retroflexus, pre-emergence, 240 h, 0 to 100 scale, read-out: Plant response rating, Pigweed
How it was run: as §2

[11] = test system: velvetleaf (Abutilon theophrasti); assay: Test A preemergence; conditions: 0 to 100 scale
How it was run: as §2

[12] = test system: wheat (Triticum aestivum); assay: Test A preemergence; conditions: 0 to 100 scale
How it was run: as §2

[13] = test system: barnyardgrass (Echinochloa crus-galli); assay: Test A postemergence; conditions: Echinochloa crus-galli, post-emergence, 240 h, 0 to 100 scale, read-out: Plant response rating, Barnyardgrass
How it was run: as §2

[14] = test system: corn (Zea mays); assay: Test A postemergence; conditions: Zea mays, post-emergence, 240 h, 0 to 100 scale
How it was run: as §2

[15] = test system: giant foxtail (Setaria faberii); assay: Test A postemergence; conditions: Setaria faberi, post-emergence, 240 h, 0 to 100 scale, read-out: Plant response rating, Foxtail, Giant
How it was run: as §2

[16] = test system: large (Lg) crabgrass (Digitaria sanguinalis); assay: Test A postemergence; conditions: 0 to 100 scale
How it was run: as §2

[17] = test system: morningglory (Ipomoea spp.); assay: Test A postemergence; conditions: 0 to 100 scale
How it was run: as §2

[18] = test system: pigweed (Amaranthus retroflexus); assay: Test A postemergence; conditions: Amaranthus retroflexus, post-emergence, 240 h, 0 to 100 scale, read-out: Plant response rating, Pigweed
How it was run: as §2

[19] = test system: velvetleaf (Abutilon theophrasti); assay: Test A postemergence; conditions: 0 to 100 scale
How it was run: as §2

[20] = test system: wheat (Triticum aestivum); assay: Test A postemergence; conditions: Triticum aestivum, post-emergence, 240 h, 0 to 100 scale, read-out: Plant response rating, Wheat
How it was run: as §2

[21] = test system: barnyardgrass (Echinochloa crus-galli); assay: Test C flooded paddy; conditions: Flood, scale 0 to 100
Text: (§3) At time of treatment, test pots were flooded to 3 cm above the soil surface, treated by application of test compounds directly to the paddy water, and then maintained at that water depth for the duration of the test. Treated plants and controls were maintained in a greenhouse for 13 to 15 days, after which time all species were compared to controls and visually evaluated. […] A dash (-) response means no test result.

[22] = test system: ducksalad (Heteranthera limosa); assay: Test C flooded paddy; conditions: Flood, scale 0 to 100
Text: as §3

[23] = test system: rice (Oryza sativa); assay: Test C flooded paddy; conditions: Flood, scale 0 to 100
Text: as §3

[24] = test system: sedge, umbrella (small-flower umbrella sedge, Cyperus difformis); assay: Test C flooded paddy; conditions: Flood, scale 0 to 100
Text: as §3

N#Cc1cccc(Oc2ncc(Br)cn2)c1Oc1ncc(Br)cn1 [Compound 1, 2,3-bis[(5-bromo-2-pyrimidinyl)oxy]benzonitrile]
pest or weed control at 250 g/ha [1]: 40%
pest or weed control at 250 g/ha [2]: 90%
plant injury at 250 g/ha [3]: 0%
pest or weed control at 250 g/ha [4]: 95%
pest or weed control at 125 g/ha ([5]; 125 g ai/ha): 70%
pest or weed control at 500 g/ha ([5]; 500 g ai/ha): 90%
Plant response rating, Corn ([6]; 125 g ai/ha): 20
Plant response rating, Corn ([6]; 500 g ai/ha): 60
pest or weed control at 125 g/ha ([7]; 125 g ai/ha): 90%
pest or weed control at 500 g/ha ([7]; 500 g ai/ha): 100%
Plant response rating, Crabgrass, Large ([8]; 125 g ai/ha): 100
Plant response rating, Crabgrass, Large ([8]; 500 g ai/ha): 100
Plant response rating, Morningglory ([9]; 125 g ai/ha): 30
Plant response rating, Morningglory ([9]; 500 g ai/ha): 100
pest or weed control at 125 g/ha ([10]; 125 g ai/ha): 100%
pest or weed control at 500 g/ha ([10]; 500 g ai/ha): 100%
Plant response rating, Velvetleaf ([11]; 125 g ai/ha): 70
Plant response rating, Velvetleaf ([11]; 500 g ai/ha): 100
Plant response rating, Wheat ([12]; 125 g ai/ha): 20
Plant response rating, Wheat ([12]; 500 g ai/ha): 60
pest or weed control at 125 g/ha ([13]; 125 g ai/ha): 70%
pest or weed control at 500 g/ha ([13]; 500 g ai/ha): 90%
Corn plant response rating (crop injury, 0 = no effect, 100 = complete kill) at 125 g/ha ([14]; 125 g ai/ha): 30%
Corn plant response rating (crop injury, 0 = no effect, 100 = complete kill) at 500 g/ha ([14]; 500 g ai/ha): 80%
pest or weed control at 125 g/ha ([15]; 125 g ai/ha): 70%
pest or weed control at 500 g/ha ([15]; 500 g ai/ha): 90%
Plant response rating, Crabgrass, Large ([16]; 125 g ai/ha): 60
Plant response rating, Crabgrass, Large ([16]; 500 g ai/ha): 100
Plant response rating, Morningglory ([17]; 125 g ai/ha): 30
Plant response rating, Morningglory ([17]; 500 g ai/ha): 30
pest or weed control at 125 g/ha ([18]; 125 g ai/ha): 100%
pest or weed control at 500 g/ha ([18]; 500 g ai/ha): 100%
Plant response rating, Velvetleaf ([19]; 125 g ai/ha): 70
Plant response rating, Velvetleaf ([19]; 500 g ai/ha): 90
plant injury at 125 g/ha ([20]; 125 g ai/ha): 30%
plant injury at 500 g/ha ([20]; 500 g ai/ha): 60%
Plant response rating, Barnyardgrass ([21]; 31 g ai/ha): 0
Plant response rating, Barnyardgrass ([21]; 62 g ai/ha): 0
Plant response rating, Barnyardgrass ([21]; 125 g ai/ha): 0
Plant response rating, Barnyardgrass ([21]; 250 g ai/ha): 0
Plant response rating, Ducksalad ([22]; 31 g ai/ha): 0
Plant response rating, Ducksalad ([22]; 62 g ai/ha): 0
Plant response rating, Ducksalad ([22]; 125 g ai/ha): 50
Plant response rating, Ducksalad ([22]; 250 g ai/ha): 80
Plant response rating, Rice ([23]; 31 g ai/ha): 0
Plant response rating, Rice ([23]; 62 g ai/ha): 0
Plant response rating, Rice ([23]; 125 g ai/ha): 0
Plant response rating, Rice ([23]; 250 g ai/ha): 0
Plant response rating, Sedge, Umbrella ([24]; 31 g ai/ha): 0
Plant response rating, Sedge, Umbrella ([24]; 62 g ai/ha): 30
Plant response rating, Sedge, Umbrella ([24]; 125 g ai/ha): 65
Plant response rating, Sedge, Umbrella ([24]; 250 g ai/ha): 80
